Experiments:
free thiols in H. pylori = test: Free thiol depletion assay; assay type: cell-based, Helicobacter pylori; settings: H. pylori treated with 5.0 μM for four hours
[1] = cited from earlier work
H. pylori G27 = settings: H. pylori G27, liquid media; cited from earlier work
rat liver TrxR = biological target: T1, rat liver TrxR (Rattus norvegicus, UniProt O89049); test: TrxR inhibition assay; assay type: biochemical; settings: purified rat liver TrxR, DTNB, ΔA412 after 10 minutes
T1 sequence (O89049 1-499): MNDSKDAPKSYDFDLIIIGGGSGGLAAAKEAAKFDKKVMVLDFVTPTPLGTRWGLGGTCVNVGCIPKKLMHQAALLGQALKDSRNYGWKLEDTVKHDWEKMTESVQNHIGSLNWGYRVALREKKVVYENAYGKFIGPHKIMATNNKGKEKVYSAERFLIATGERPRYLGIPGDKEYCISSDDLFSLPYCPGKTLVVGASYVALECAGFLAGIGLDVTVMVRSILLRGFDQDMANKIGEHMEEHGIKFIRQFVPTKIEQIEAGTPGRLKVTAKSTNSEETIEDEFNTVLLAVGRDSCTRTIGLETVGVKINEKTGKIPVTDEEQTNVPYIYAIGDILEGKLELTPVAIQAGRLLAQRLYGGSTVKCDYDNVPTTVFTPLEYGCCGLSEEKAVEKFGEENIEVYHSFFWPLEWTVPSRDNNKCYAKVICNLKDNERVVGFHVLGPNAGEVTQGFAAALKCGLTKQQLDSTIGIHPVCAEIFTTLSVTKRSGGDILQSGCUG

SMILES | free thiol concentration in comparison to untreated samples (free thiols in H. pylori) | logP [1] | previously reported MIC (H. pylori G27) | half maximal inhibitory concentration (IC50) of TrxR (rat liver TrxR)
CC1(C)S[C@@H]2[C@H](NC(=O)[C@H](N)c3ccc(O)cc3)C(=O)N2[C@H]1C(=O)O [amoxicillin] | no differences in free thiol concentrations |  |  | 
CC(=O)OC[C@H]1O[C@@H]([S-])[C@H](OC(C)=O)[C@@H](OC(C)=O)[C@@H]1OC(C)=O.CCP(CC)CC.[Au+] [Compound 1, auranofin] |  | 0.56 | 1.2 µM | 
CC(=O)NC1C([S][Au][PH](C)(C)C)OC(CO)C(O)C1O (centres unmarked) [Compound 6] |  | −2.03 |  | inhibited TrxR most effectively
